According to patent publication US7868135B2, “Compositions of lipopeptide antibiotic derivatives and methods of use thereof” (priority 2003, dated 2011):
Starred links: 1 amine or outer side, 2 acyl side, 3 side chain; linkers in the order of their positions; H or OH if unused. Positions of bridges follow the written chain, without caps; N, C: chain ends. Non-standard residues stand in square brackets, D forms with d. Residues, ends and D or L forms follow the SMILES beside them. Groups on a side chain read outwards from the residue. ξ: configuration not given here. *: point of attachment. X22 = CC(NC(=O)[C@H](N)CO)C(N[*:1])C(=O)[*:2]; X3 = CC(NC(=O)[C@H](N)CN)C(N[*:1])C(=O)[*:2]; ξAbu(βξ-NH2) = CC(N[*:3])C(N[*:1])C(=O)[*:2]; X41 = CC(NC(=O)C1CCCCC1)C(N[*:1])C(=O)[*:2]; Lys(Me3) = C[N+](C)(C)CCCC[C@H](N)C(=O)O; X20 = CC#CC(=O)NC(C)C(N[*:1])C(=O)[*:2]; X44 = CCNCC(=O)NC(C)C(N[*:1])C(=O)[*:2]; NH(2-CF3-phenyl) = FC(F)(F)c1ccccc1N*; Pentadecanoyl = CCCCCCCCCCCCCCC(=O)*; ξAsp(βξ-Me) = CC(C(=O)O)C(N)C(=O)O; X13 = O=C(CCCCCCCCCCOc1ccccc1)*; ξAbu(3ξ-NH2) = CC(N)C(N)C(=O)O; Pip = O=C(O)[CH]1CCCCN1; ξD = NC(CC(=O)O)C(=O)O; ξPip = O=C(O)C1CCCCN1; CO = O=C([*:1])[*:2]; ξV = CC(C)C(N)C(=O)O; ξP = O=C(O)C1CCCN1

tested on: Staphylococcus aureus (MSSA); conditions: 24 h
Procedure: (“Approved Standard M7-A3”).
The antimicrobial lipopeptide derivatives described herein were tested for antimicrobial activity against Gram-positive bacteria as follows. The minimum inhibitory concentrations (MIC) of the antimicrobial lipopeptide derivatives of the invention were determined using NCCLS guidelines M7-A6 (2003) with a slight modification in that doubling serial dilutions were used to dilute the test compounds. The broth phase microdilution method was used. Isolated colonies of Staphylococcus aureus (MSSA) from an 18-24 hour blood agar plate cultures were used to inoculate cation adjusted Mueller-Hinton broth (CAMHB) supplemented with 0.625 mM calcium. […] A negative control containing media alone and a positive growth control containing bacteria with media alone were also included. MICs were determined after incubating the plates at about 37° C. for 24 hours. […] In Tables 1 to 16, R is the core cyclic peptide of amphomycin or aspartocin, which can be in the form of a β-isomer, an anhydro, a dianhydro, or any combination thereof. […] Furthermore, a person of skill in the art will appreciate that all the pounds, or groups of compounds, derived from the various combinations of and substituents shown in Tables 1 to 16, are disclosed by the present the same extent as if each compound or group of compounds was set forth individually.

| Molecule | MIC [µg/mL] |
| --- | --- |
| CCCCCCCCCCCCCCC(=O)NC(CC(=O)O)C(=O)NC1C(=O)N2CCCCC2C(=O)NC(C(C)C(=O)O)C(=O)NC(CC(=O)O)C(=O)NCC(=O)NC(CC(=O)O)C(=O)NCC(=O)NC(C(C)NC(=O)Nc2ccccc2C(F)(F)F)C(=O)NC(C(C)C)C(=O)N2CCCC2C(=O)NC1C (stereo not drawn) [Compound 318, C15-Amphomycin-9-C(═O)—NH—(O—CF3-Phenyl)] (Pentadecanoyl-D[ξAbu(βξ-NH2)][Pip][ξAsp(βξ-Me)]DGDG[ξAbu(βξ-NH2)]([CO-NH(2-CF3-phenyl)])VP; lactam 2-C; configuration not given here) | 64 |
| CC(C)C1NC(=O)C(C(C)N)NC(=O)CNC(=O)C(CC(=O)O)NC(=O)CNC(=O)C(CC(=O)O)NC(=O)C(C(C)C(=O)O)NC(=O)C2CCCCN2C(=O)C(NC(=O)C(CC(=O)O)NC(=O)CNC(=O)CCCCCCCCCCOc2ccccc2)C(C)NC(=O)C2CCCN2C1=O (stereo not drawn) [Compound 117, Ph-O—(CH2)11-Gly-Amphomycin] (X13-GD[ξAbu(βξ-NH2)][Pip][ξAsp(βξ-Me)]DGDG[ξAbu(3ξ-NH2)]VP; lactam 3-C; configuration not given here; N-terminus assumed) | 8 |
| CCCCCCCCCCCCCCC(=O)NC(CC(=O)O)C(=O)NC1C(=O)N2CCCCC2C(=O)NC(C(C)C(=O)O)C(=O)NC(CC(=O)O)C(=O)NCC(=O)NC(CC(=O)O)C(=O)NCC(=O)NC(C(C)NC(=O)CNCC)C(=O)NC(C(C)C)C(=O)N2CCCC2C(=O)NC1C (stereo not drawn) [Compound 243, C15-Amphomycin-9-(N-Ethyl-Gly)] (Pentadecanoyl-D[ξAbu(βξ-NH2)][Pip][ξAsp(βξ-Me)]DGDG[X44]VP; lactam 2-C; configuration not given here) | 0.5 to 1 |
| CCCCCCCCCCCCCCC(=O)NC(CC(=O)O)C(=O)NC1C(=O)N2CCCCC2C(=O)NC(C(C)C(=O)O)C(=O)NC(CC(=O)O)C(=O)NCC(=O)NC(CC(=O)O)C(=O)NCC(=O)NC(C(C)NC(=O)[C@@H](N)[C@@H](C)O)C(=O)NC(C(C)C)C(=O)N2CCCC2C(=O)NC1C (some centres unmarked) [Compound 44, C15-Amphomycin-9-Thr] | 2 to 4 |
| CCCCCCCCCCCCCCC(=O)NC(CC(=O)O)C(=O)NC1C(=O)N2CCCCC2C(=O)NC(C(C)C(=O)O)C(=O)NC(CC(=O)O)C(=O)NCC(=O)NC(CC(=O)O)C(=O)NCC(=O)NC(C(C)NC(=O)[C@H](N)CO)C(=O)NC(C(C)C)C(=O)N2CCCC2C(=O)NC1C (stereo partly drawn) [Compound 262, C15-Amphomycin-(D-Ser)] (Pentadecanoyl-[ξD][ξAbu(βξ-NH2)][ξPip][ξAsp(βξ-Me)][ξD]G[ξD]G[X22][ξV][ξP]; lactam 2-C) | 4 |
| CCCCCCCCCCCC(=O)Nc1ccc(C(=O)NC(CC(=O)O)C(=O)NC2C(=O)N3CCCCC3C(=O)NC(C(C)C(=O)O)C(=O)NC(CC(=O)O)C(=O)NCC(=O)NC(CC(=O)O)C(=O)NCC(=O)NC(C(C)NC(=O)CN)C(=O)NC(C(C)C)C(=O)N3CCCC3C(=O)NC2C)cc1 (centres unmarked) [Compound 87, C12-PABA-Amphomycin-9-Gly] | 0.25 to 0.5 |
| CC#CC(=O)NC(C)C1NC(=O)CNC(=O)C(CC(=O)O)NC(=O)CNC(=O)C(CC(=O)O)NC(=O)C(C(C)C(=O)O)NC(=O)C2CCCCN2C(=O)C(NC(=O)C(CC(=O)O)NC(=O)CCCCCCCCCCCCCC)C(C)NC(=O)C2CCCN2C(=O)C(C(C)C)NC1=O (stereo not drawn) [Compound 227, C15-Amphomycin-9-(2-Butynyl)] (Pentadecanoyl-D[ξAbu(βξ-NH2)][Pip][ξAsp(βξ-Me)]DGDG[X20]VP; lactam 2-C; configuration not given here) | 32 |
| CCCCCCCCCCCCCCC(=O)NC(CC(=O)O)C(=O)NC1C(=O)N2CCCCC2C(=O)NC(C(C)C(=O)O)C(=O)NC(CC(=O)O)C(=O)NCC(=O)NC(CC(=O)O)C(=O)NCC(=O)NC(C(C)NC(=O)[C@@H](N)CCCC[N+](C)(C)C)C(=O)NC(C(C)C)C(=O)N2CCCC2C(=O)NC1C (stereo partly drawn) [Compound 170, C15-Amphomycin-9-(ME)3Lys] (Pentadecanoyl-[ξD][ξAbu(βξ-NH2)][ξPip][ξAsp(βξ-Me)][ξD]G[ξD]G[ξAbu(βξ-NH2)](Lys(Me3))[ξV][ξP]; lactam 2-C) | 2 |
| CCCCCCCCCCCCCCC(=O)NC(CC(=O)O)C(=O)NC1C(=O)N2CCCCC2C(=O)NC(C(C)C(=O)O)C(=O)NC(CC(=O)O)C(=O)NCC(=O)NC(CC(=O)O)C(=O)NCC(=O)NC(C(C)NC(=O)[C@H](N)CN)C(=O)NC(C(C)C)C(=O)N2CCCC2C(=O)NC1C (stereo partly drawn) [Compound 328, C15-Amphomycin-9-(D-Dap)] (Pentadecanoyl-[ξD][ξAbu(βξ-NH2)][ξPip][ξAsp(βξ-Me)][ξD]G[ξD]G[X3][ξV][ξP]; lactam 2-C) | 2 |
| CCCCCCCCCCCCCCC(=O)NC(CC(=O)O)C(=O)NC1C(=O)N2CCCCC2C(=O)NC(C(C)C(=O)O)C(=O)NC(CC(=O)O)C(=O)NCC(=O)NC(CC(=O)O)C(=O)NCC(=O)NC(C(C)NC(=O)[C@H](CCCCN)NC(=O)[C@H](CCCCN)NC(=O)[C@@H](N)CCCCN)C(=O)NC(C(C)C)C(=O)N2CCCC2C(=O)NC1C (stereo partly drawn) [Compound 195, C15-Amphomycin-9-Lys-Lys-Lys] | 4 |
| CCCCCCCCCCCCCCC(=O)NC(CC(=O)O)C(=O)NC1C(=O)N2CCCCC2C(=O)NC(C(C)C(=O)O)C(=O)NC(CC(=O)O)C(=O)NCC(=O)NC(CC(=O)O)C(=O)NCC(=O)NC(C(C)NC(=O)CNC(=O)CNC(=O)[C@@H](N)CCCCN)C(=O)NC(C(C)C)C(=O)N2CCCC2C(=O)NC1C (stereo partly drawn) [Compound 192, C15-Amphomycin-9-Gly-Gly-Lys] | 0.5 to 1 |
| CCCCCCCCCCCCCCC(=O)NC(CC(=O)O)C(=O)NC1C(=O)N2CCCCC2C(=O)NC(C(C)C(=O)O)C(=O)NC(CC(=O)O)C(=O)NCC(=O)NC(CC(=O)O)C(=O)NCC(=O)NC(C(C)NC(=O)[C@H](CCCCN)NC(=O)CN)C(=O)NC(C(C)C)C(=O)N2CCCC2C(=O)NC1C (some centres unmarked) [Compound 193, C15-Amphomycin-9-Lys-Gly] | 4 to 8 |
| CCCCCCCCCCCCCCC(=O)NC(CC(=O)O)C(=O)NC1C(=O)N2CCCCC2C(=O)NC(C(C)C(=O)O)C(=O)NC(CC(=O)O)C(=O)NCC(=O)NC(CC(=O)O)C(=O)NCC(=O)NC(C(C)NC(=O)C2CCCCC2)C(=O)NC(C(C)C)C(=O)N2CCCC2C(=O)NC1C (stereo not drawn) [Compound 206, C15-Amphomycin-9-cHexyl] (Pentadecanoyl-D[ξAbu(βξ-NH2)][Pip][ξAsp(βξ-Me)]DGDG[X41]VP; lactam 2-C; configuration not given here) | 8 |
| CCCCCCCCCCCCCCC(=O)NC(CC(=O)O)C(=O)NC1C(=O)N2CCCCC2C(=O)NC(C(C)C(=O)O)C(=O)NC(CC(=O)O)C(=O)NCC(=O)NC(CC(=O)O)C(=O)NCC(=O)NC(C(C)NC(=O)CCNC(=O)[C@@H](N)CCCN)C(=O)NC(C(C)C)C(=O)N2CCCC2C(=O)NC1C (stereo partly drawn) [Compound 148, C15-Amphomycin-9-(β-Ala)-Orn] | 0.5 to 1 |
| CCCCCCCCCC(=O)N(C)CC(=O)NC(CC(=O)O)C(=O)NC1C(=O)N2CCCCC2C(=O)NC(C(C)C(=O)O)C(=O)NC(CC(=O)O)C(=O)NCC(=O)NC(CC(=O)O)C(=O)NCC(=O)NC(C(C)N)C(=O)NC(C(C)C)C(=O)N2CCCC2C(=O)NC1C (centres unmarked) [Compound 344, C10-Sar-Amphomycin] | >64 |

same assay, conditions: S. aureus (MSSA), CAMHB supplemented with 0.625 mM calcium, 24 hours at about 37° C.; a range = compound tested multiple times

| Molecule | MIC |
| --- | --- |
| CCCCCCCCCCCC(=O)NC(CC(=O)O)C(=O)NC1C(=O)N2CCCCC2C(=O)NC(C(C)C(=O)O)C(=O)NC(CC(=O)O)C(=O)NCC(=O)NC(CC(=O)O)C(=O)NCC(=O)NC(C(C)NC(=O)CNC(=O)[C@@H](N)CCCCN)C(=O)NC(C(C)C)C(=O)N2CCCC2C(=O)NC1C (some centres unmarked) [Compound 143, C12-Amphomycin-9-Gly-Lys] | 143/2-4 μg/mL |
| CH3—(CH2)13—NH—C(═O)-(p-Phenylacetyl)-Amphomycin [Compound 289] | 2 µg/mL |
